Measured values from ChEMBL document CHEMBL6121021, “Design and Synthesis of Topoisomerases-Histone Deacetylase Dual Targeted Quinoline-Bridged Hydroxamates as Anticancer Agents” (J Med Chem, 2025).
Activity calls are given as the source filed them. The calls are words filed in the database; no cut-off is given here.

What was measured:
A549 [1] = test: Induction of cell cycle arrest in human A549 cells assessed as accumulation at G1 phase by PI staining based flow cytometry; assay type: functional
MDA-MB-231 = test: Anti-cancer activity against human MDA-MB-231 cells assessed as decrease in p53 level at 1 to 5 uM incubated for 48 hrs by immunoblot analysis; assay type: functional, cell-based; conditions: dose 1-5 µM
A549 [2] = test: Induction of cell cycle arrest in human A549 cells assessed as accumulation at G2/M phase by PI staining based flow cytometry; assay type: functional
A549 [3] = test: Induction of apoptosis in human A549 cells by Annexin-V/PI staining based flow cytometry; assay type: functional, cell-based
[4] = target: T1, DNA topoisomerase 1 (Homo sapiens) (UniProt P11387); test: Inhibition of human Topo I-mediated relaxation of supercoiled DNA preincubated for 30 mins followed by proteinase K addition measured after 30 mins by gel electrophoresis; conditions: time 60.0 min
T1 sequence (whole entry): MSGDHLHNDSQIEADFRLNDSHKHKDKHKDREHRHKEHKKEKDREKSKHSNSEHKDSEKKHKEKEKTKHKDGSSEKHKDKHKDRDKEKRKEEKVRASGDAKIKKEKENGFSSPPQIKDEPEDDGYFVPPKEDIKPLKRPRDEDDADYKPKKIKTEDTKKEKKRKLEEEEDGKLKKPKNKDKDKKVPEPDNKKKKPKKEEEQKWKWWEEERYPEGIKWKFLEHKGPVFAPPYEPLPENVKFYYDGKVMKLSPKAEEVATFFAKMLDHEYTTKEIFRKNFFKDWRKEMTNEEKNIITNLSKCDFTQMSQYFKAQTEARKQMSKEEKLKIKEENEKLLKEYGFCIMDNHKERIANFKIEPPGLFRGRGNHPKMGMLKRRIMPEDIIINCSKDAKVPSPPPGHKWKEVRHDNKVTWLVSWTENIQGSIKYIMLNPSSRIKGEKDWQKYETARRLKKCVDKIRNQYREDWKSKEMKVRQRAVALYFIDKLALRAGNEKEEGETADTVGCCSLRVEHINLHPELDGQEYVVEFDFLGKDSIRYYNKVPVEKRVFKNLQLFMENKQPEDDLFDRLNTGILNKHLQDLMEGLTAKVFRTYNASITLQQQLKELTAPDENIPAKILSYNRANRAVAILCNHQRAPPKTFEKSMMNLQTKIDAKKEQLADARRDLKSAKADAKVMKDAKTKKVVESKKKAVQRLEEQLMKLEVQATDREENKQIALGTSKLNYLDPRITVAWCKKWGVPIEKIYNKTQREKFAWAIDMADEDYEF

Histone deacetylase 5 = Histone deacetylase 5 (Homo sapiens, UniProt Q9UQL6); test: Inhibition of His-tagged recombinant human HDAC5 catalytic domain by fluorogenic assay
[5] = Drug metabolism in human hepatocytes assessed as glucuronide conjugated M8 metabolite formation at 10 uM by LC-MS/MS analysis; assay type: ADME, cell-based, Hepatocyte
A549 [6] = test: In vivo cytotoxicity against human A549 cells xenografted in athymic nude Crl:NU-Foxn1nu mouse at 15 to 30 mg/kg, po administered twice a week for 1 month; assay type: functional, organism-based; conditions: dose 15-30 mg/kg, time 1.0 months
Histone deacetylase 11 = Histone deacetylase 11 (Homo sapiens, UniProt Q96DB2); test: Inhibition of recombinant human HDAC11 by fluorogenic assay
Sequence of Histone deacetylase 11 (Q96DB2 whole entry): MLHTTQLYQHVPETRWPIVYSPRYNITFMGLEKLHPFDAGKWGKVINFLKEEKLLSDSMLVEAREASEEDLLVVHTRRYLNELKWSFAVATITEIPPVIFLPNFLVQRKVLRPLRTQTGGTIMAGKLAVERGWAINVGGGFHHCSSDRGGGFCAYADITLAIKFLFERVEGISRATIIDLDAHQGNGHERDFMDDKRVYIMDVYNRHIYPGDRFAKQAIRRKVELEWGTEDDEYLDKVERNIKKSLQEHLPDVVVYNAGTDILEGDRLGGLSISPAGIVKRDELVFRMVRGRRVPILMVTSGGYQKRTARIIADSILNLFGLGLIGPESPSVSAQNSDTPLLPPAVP

Histone deacetylase 2 = Histone deacetylase 2 (Homo sapiens, UniProt Q92769)
Sequence of Histone deacetylase 2 (Q92769 whole entry): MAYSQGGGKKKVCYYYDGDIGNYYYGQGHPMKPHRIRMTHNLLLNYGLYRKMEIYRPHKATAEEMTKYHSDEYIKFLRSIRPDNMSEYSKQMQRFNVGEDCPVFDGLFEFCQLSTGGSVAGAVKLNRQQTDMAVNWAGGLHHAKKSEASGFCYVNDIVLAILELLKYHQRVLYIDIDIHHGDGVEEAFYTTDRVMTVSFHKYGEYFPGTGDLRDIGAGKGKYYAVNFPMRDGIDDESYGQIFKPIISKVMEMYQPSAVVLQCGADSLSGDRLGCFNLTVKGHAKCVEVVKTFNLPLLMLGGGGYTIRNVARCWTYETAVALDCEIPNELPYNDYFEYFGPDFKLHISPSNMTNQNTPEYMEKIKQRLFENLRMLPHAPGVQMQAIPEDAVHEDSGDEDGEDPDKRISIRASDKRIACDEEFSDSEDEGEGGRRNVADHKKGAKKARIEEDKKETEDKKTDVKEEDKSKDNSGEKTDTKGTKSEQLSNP

Cytochrome P450 2C19 = Cytochrome P450 2C19 (Homo sapiens, UniProt P33261); test: Inhibition of CYP2C19 in human liver microsomes preincubated for 10 mins followed by NADPH addition measured after 5 mins by LC-MS/MS analysis; assay type: ADME, Microsome
Sequence of Cytochrome P450 2C19 (P33261 whole entry): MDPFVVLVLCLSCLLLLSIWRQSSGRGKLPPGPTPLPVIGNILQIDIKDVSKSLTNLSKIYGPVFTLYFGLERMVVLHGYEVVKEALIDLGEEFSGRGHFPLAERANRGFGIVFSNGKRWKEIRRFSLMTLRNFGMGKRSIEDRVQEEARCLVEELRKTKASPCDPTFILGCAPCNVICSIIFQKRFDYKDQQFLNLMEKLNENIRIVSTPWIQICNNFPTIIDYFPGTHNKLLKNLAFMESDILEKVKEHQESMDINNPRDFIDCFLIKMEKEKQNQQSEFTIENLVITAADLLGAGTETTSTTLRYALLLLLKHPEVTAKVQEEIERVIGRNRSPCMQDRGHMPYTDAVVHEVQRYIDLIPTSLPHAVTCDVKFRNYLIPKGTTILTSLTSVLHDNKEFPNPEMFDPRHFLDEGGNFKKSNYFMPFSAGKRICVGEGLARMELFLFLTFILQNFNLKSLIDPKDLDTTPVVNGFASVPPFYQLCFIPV

[7] = Metabolic stability in human hepatocytes assessed as hepatic clearance at 2 uM measured upto 120 min by LC-MS/MS analysis; assay type: ADME, cell-based, Hepatocyte
A549 [8] = test: In vivo anti-migratory activity in human A549 cells xenografted in athymic nude Crl:NU-Foxn1nu mouse assessed as decrease in vimentin mRNA level at 30 mg/kg, po administered twice a week for 1 month by qPCR analysis; assay type: functional, organism-based; conditions: time 1.0 months
A549 [9] = test: In vivo anti-metastatic activity in human A549 cells xenografted in athymic nude Crl:NU-Foxn1nu mouse assessed as decrease in ZEB1 mRNA level at 30 mg/kg, po administered twice a week for 1 month by qPCR analysis; assay type: functional, organism-based; conditions: time 1.0 months
A549 [10] = test: Induction of mitophagy in human A549 cells at 500 nM by MitoTracker Green dye based analysis; assay type: functional, cell-based
A549 [11] = test: Induction of cell cycle arrest in human A549 cells assessed as accumulation at G2/M phase at 500 nM by PI staining based flow cytometry; assay type: functional
[12] = Metabolic stability in human hepatocytes assessed as half life at 2 uM measured upto 120 min by LC-MS/MS analysis; assay type: ADME, cell-based, Hepatocyte
H9c2 = test: Antiproliferative activity against rat H9c2 cells at 10 uM by JC-1 staining based analysis; assay type: toxicity, cell-based; conditions: h9c2, 10 µM
[13] = target: DNA topoisomerase 2-alpha (Homo sapiens, UniProt P11388); test: Inhibition of human Topo II-alpha-mediated decatenation of kDNA incubated for 30 mins
Sequence of DNA topoisomerase 2-alpha (P11388 whole entry): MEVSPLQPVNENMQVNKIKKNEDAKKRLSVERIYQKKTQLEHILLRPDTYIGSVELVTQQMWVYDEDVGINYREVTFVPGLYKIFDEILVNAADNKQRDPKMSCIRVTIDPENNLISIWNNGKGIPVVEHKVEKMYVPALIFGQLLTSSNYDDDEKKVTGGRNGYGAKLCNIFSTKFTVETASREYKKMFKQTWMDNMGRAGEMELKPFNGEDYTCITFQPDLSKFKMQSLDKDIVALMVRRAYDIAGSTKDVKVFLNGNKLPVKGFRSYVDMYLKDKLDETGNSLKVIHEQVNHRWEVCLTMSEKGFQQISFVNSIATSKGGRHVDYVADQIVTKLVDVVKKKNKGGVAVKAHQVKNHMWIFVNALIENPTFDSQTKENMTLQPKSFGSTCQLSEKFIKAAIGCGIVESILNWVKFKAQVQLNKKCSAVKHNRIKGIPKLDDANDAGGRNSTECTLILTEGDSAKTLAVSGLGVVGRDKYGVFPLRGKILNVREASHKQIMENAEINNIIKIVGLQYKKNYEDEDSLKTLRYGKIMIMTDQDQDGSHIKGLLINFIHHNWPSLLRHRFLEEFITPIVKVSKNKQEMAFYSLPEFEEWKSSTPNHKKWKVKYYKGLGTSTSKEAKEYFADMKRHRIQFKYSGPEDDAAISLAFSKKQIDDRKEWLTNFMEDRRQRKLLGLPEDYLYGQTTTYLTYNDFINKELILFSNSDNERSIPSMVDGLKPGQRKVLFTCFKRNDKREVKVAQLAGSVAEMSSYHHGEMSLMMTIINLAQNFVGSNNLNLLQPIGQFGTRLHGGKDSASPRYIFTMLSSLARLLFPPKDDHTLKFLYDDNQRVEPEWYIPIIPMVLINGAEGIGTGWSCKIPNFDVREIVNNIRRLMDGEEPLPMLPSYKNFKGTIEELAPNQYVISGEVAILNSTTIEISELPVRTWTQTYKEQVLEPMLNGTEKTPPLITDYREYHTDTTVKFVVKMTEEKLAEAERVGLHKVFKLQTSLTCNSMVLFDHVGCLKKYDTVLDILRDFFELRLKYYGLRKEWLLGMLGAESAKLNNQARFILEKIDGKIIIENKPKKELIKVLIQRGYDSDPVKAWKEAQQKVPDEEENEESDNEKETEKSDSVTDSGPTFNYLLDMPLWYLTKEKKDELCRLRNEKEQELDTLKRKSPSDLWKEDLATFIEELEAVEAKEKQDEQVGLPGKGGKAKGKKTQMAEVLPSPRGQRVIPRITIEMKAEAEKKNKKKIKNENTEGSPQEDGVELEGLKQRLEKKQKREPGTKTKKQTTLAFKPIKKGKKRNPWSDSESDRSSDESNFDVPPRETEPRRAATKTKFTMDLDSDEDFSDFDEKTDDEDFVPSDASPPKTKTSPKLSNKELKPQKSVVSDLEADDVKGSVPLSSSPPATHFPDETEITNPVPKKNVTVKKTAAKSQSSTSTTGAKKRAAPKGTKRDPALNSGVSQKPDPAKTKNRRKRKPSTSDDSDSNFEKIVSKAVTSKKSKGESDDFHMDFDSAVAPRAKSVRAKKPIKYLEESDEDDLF

A549 [14] = test: Antitumor activity against human A549 cells xenografted in athymic nude Crl:NU-Foxn1nu mouse assessed as decrease in tumor size at 15 to 30 mg/kg, po administered twice a week for 1 month; assay type: functional, organism-based; conditions: dose 15-30 mg/kg, time 1.0 months
[15] = Drug metabolism in human hepatocytes assessed as oxidative deamination M1 metabolite formation at 10 uM by LC-MS/MS analysis; assay type: ADME, cell-based, Hepatocyte
[16] = Drug metabolism in human hepatocytes assessed as O-dealkylation M5 metabolite formation at 10 uM by LC-MS/MS analysis; assay type: ADME, cell-based, Hepatocyte
HEK293 = test: Antiproliferative activity against HEK293 cells at 10 uM incubated for 48 hrs by MTT assay; assay type: toxicity, cell-based; conditions: human, hek293, 48 h
Cytochrome P450 1A2 = Cytochrome P450 1A2 (Homo sapiens, UniProt P05177); test: Inhibition of CYP1A2 in human liver microsomes preincubated for 10 mins followed by NADPH addition measured after 5 mins by LC-MS/MS analysis; assay type: ADME, Microsome
Sequence of Cytochrome P450 1A2 (P05177 whole entry): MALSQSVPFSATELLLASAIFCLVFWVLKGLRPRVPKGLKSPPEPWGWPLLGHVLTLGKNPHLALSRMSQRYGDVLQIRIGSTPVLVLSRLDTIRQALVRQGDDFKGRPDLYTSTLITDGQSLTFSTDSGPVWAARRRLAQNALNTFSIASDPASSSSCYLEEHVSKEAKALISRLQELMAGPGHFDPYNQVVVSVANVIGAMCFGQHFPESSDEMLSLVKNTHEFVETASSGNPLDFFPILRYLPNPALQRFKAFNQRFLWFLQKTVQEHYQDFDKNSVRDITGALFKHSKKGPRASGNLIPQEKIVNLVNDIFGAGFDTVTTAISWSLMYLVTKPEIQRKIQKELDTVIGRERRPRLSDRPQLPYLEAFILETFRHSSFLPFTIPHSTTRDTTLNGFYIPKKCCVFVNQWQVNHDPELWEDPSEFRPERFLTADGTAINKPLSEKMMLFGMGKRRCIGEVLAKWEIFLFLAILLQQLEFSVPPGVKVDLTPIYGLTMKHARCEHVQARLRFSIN

[17] = Drug metabolism in human hepatocytes assessed as direct glucuronide conjugate M9 metabolite formation at 10 uM by LC-MS/MS analysis; assay type: ADME, cell-based, Hepatocyte
[18] = Antiproliferative activity against human NCI-H1975 cells harboring EGFR T790M mutant incubated for 48 hrs by MTT assay; assay type: functional, cell-based; conditions: NCI-H1975, 48 h
Histone deacetylase 4 = Histone deacetylase 4 (Homo sapiens, UniProt P56524); test: Inhibition of His/GST-tagged recombinant human HDAC4 by fluorogenic assay
Sequence of Histone deacetylase 4 (P56524 whole entry): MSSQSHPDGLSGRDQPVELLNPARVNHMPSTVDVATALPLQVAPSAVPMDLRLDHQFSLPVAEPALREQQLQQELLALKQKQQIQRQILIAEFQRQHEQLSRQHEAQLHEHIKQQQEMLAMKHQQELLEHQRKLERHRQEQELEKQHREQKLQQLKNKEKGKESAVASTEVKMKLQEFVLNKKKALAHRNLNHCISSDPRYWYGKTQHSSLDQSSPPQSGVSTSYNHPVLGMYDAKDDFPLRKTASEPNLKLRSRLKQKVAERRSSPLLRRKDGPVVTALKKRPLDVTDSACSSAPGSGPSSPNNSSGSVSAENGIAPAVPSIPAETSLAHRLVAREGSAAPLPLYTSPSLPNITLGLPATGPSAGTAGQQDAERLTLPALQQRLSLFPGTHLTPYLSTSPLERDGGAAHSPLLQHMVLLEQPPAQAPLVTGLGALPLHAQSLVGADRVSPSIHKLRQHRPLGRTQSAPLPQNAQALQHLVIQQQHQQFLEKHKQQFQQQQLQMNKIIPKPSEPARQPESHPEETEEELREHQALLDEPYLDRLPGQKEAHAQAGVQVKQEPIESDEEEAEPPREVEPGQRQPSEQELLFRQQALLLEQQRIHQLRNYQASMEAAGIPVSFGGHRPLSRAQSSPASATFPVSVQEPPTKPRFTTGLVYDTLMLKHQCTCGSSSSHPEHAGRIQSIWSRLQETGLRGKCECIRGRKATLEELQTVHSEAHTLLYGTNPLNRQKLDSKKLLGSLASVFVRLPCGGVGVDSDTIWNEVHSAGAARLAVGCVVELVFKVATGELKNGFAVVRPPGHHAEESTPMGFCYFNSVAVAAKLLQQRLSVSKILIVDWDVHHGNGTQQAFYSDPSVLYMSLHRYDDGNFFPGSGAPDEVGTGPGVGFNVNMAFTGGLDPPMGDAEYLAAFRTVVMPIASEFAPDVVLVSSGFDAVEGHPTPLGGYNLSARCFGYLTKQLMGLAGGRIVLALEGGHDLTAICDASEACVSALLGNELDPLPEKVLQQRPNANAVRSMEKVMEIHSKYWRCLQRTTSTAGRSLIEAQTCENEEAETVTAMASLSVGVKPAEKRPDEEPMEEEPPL

[19] = Drug metabolism in human hepatocytes assessed as demethylation M6 metabolite formation at 10 uM by LC-MS/MS analysis; assay type: ADME, cell-based, Hepatocyte
A549 [20] = test: In vivo induction of apoptosis in human A549 cells xenografted in athymic nude Crl:NU-Foxn1nu mouse assessed as increase in Bcl-2 level at 30 mg/kg, po administered twice a week for 1 month by immunoblot analysis; assay type: functional, organism-based; conditions: time 1.0 months
A549 [21] = test: Antitumor activity against human A549 cells xenografted in athymic nude Crl:NU-Foxn1nu mouse assessed as tumor regression at 30 mg/kg, po administered twice a week for 1 month; assay type: functional, organism-based; conditions: time 1.0 months

COc1ccc(-c2ccc3ccc(OCCCCCCC(=O)NO)cc3n2)cc1I
Activity (A549 [1]): Active | Activity (MDA-MB-231): Active | Activity (A549 [2]): Active | Activity (A549 [3]): Active | inhibition [4]: Active

COc1ccc(-c2ccc3cc(OCCCCCC(=O)NO)ccc3n2)cc1
IC50 (Histone deacetylase 5): 88.2 nM | Drug metabolism [5]: metabolite_detected | Activity (A549 [6]): Active | IC50 (Histone deacetylase 11): 58.1 nM | IC50 (Histone deacetylase 2): 77.4 nM | IC50 (Cytochrome P450 2C19): 18 µM | CLhep predicted at 2 µM [7]: 14 mL/min/kg | Activity (A549 [8]): Active | Activity (A549 [9]): Active | Activity (A549 [10]): Active | Activity (A549 [11]): Active | half-life at 2 µM [12]: 45.7 min | Activity (H9c2): Non-toxic | IC50 [13]: 67.8 µM | Activity (A549 [14]): Active | Drug metabolism [15]: metabolite_detected | inhibition [4]: Active | Drug metabolism [16]: metabolite_detected | Activity (HEK293): Non-toxic | IC50 (Cytochrome P450 1A2): 4.42 µM | Drug metabolism [17]: metabolite_detected | IC50 [18]: < 250 nM | IC50 (Histone deacetylase 4): 99 nM | Drug metabolism [19]: metabolite_detected | Activity (A549 [20]): Active | Activity (A549 [21]): Active; Exerted Maximum Effect
